Experimental data reported in ChEMBL document CHEMBL1201862, “PubChem BioAssay data set” (2004).
Active and inactive are the calls of the source.

What was measured:
[1] = system: Streptococcus sp. 'group A'; assay: Streptococcus pyogenes SK(-)GAS viability under kanamycin – luminescence, BacTiterGlo, confirmation, counter-screen for streptokinase expression inhibitor project, dose response (AID 1900); assay type: functional, organism-based
[2] = target: T1, Carboxy-terminal domain RNA polymerase II polypeptide A small phosphatase 1 (Homo sapiens, UniProt Q9GZU7); assay: CTDSP1 inhibitors, concentration-response, biochemical, absorbance readout, ultra-high-throughput screen actives (AID 540297); assay type: functional
T1 sequence (Q9GZU7 whole entry): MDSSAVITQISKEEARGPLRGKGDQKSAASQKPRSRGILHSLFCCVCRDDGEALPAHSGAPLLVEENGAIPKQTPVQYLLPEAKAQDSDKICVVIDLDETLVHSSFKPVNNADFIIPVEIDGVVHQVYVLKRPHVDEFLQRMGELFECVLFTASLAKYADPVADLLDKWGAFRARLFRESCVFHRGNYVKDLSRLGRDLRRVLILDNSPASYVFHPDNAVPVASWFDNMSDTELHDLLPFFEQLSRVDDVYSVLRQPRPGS

Streptococcus = assay: GAS UMAA2166 growth inhibition – luminescence, BacTiterGlo, counter-screen for streptokinase expression inhibitor project, dose response (AID 1915); assay type: functional, organism-based;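 further: potency for reduction of bacterial viability or growth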
Streptokinase A = target: T2, Streptokinase A (Streptococcus pyogenes serotype M1, UniProt P10520); assay: viability-normalized secreted streptokinase activity reduction – plasminogen activation absorbance, OD405, dose response (AID 1914); assay type: functional, Streptococcus pyogenes M1 GAS;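 further: secreted streptokinase activity via plasminogen activation per viability signal from cell pellet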
T2 sequence (P10520 whole entry): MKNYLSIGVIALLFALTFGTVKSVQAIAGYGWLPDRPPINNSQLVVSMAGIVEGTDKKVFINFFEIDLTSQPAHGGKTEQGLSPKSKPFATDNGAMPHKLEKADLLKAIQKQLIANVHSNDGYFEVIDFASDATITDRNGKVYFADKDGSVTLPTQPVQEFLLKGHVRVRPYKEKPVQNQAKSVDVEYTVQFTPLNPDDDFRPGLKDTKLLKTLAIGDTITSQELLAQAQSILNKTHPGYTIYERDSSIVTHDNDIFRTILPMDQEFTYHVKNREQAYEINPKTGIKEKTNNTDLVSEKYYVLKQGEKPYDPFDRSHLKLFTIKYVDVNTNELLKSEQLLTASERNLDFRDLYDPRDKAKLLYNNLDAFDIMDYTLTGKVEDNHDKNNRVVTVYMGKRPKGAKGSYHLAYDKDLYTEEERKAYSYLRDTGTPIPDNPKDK

Protein skinhead-1 = target: T3, Protein skinhead-1 (Caenorhabditis elegans, UniProt P34707); assay type: functional
T3 sequence (P34707 whole entry): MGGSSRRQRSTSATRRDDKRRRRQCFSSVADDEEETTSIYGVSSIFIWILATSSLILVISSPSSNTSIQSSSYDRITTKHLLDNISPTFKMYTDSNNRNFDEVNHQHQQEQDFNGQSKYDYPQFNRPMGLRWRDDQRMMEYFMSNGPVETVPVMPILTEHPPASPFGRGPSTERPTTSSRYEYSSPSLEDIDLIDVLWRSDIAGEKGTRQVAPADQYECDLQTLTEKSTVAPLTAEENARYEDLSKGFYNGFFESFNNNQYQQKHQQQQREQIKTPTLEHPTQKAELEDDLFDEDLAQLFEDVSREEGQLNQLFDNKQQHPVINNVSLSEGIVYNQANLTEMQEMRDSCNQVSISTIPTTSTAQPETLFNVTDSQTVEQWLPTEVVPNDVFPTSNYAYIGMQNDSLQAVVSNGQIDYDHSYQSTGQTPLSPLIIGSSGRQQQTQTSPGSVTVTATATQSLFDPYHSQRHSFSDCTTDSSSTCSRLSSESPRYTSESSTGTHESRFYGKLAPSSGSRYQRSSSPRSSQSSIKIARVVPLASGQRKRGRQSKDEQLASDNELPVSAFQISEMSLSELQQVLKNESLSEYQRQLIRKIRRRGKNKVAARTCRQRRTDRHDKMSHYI

[3] = target: T4, High affinity choline transporter 1 (Homo sapiens, UniProt Q9GZV3); assay: human choline transporter blockers, potency – cell-based, 5-point CRC, membrane potential dye, dose response (AID 504840); assay type: functional
T4 sequence (Q9GZV3 whole entry): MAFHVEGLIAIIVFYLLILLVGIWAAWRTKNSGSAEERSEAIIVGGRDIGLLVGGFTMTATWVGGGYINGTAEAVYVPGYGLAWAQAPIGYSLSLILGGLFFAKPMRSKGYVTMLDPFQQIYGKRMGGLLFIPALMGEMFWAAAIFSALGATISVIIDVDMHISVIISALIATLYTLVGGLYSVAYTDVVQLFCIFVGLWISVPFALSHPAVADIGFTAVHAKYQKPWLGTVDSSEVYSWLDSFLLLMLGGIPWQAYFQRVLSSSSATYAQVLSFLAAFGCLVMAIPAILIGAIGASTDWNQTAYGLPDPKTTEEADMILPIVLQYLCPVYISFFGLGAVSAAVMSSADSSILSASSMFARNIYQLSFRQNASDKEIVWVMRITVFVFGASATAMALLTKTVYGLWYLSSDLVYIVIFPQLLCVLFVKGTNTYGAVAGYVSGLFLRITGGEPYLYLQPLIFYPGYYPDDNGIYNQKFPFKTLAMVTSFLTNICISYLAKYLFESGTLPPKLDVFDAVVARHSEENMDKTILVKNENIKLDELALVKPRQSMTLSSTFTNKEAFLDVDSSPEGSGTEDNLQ

[4] = target: Luciferin 4-monooxygenase (Photinus pyralis, UniProt P08659); assay: inhibition of purified Photinus pyralis luciferase – biochemical, luminescence, dose response (AID 1891)
[5] = Luminescence Cell-Based Dose Confirmation HTS to Identify Inhibitors of Platelet Dense Granule Release. [Related pubchem assays: 1663 (Primary HTS), 1678 (Summary of Project)]; assay type: functional
[6] = alpha-synuclein stem-loop luciferase translation blockers – H4 neuroglioma cells, luminescence, confirmation (AID 1988); assay type: functional, cell-based
[7] = target: T5, Heat shock factor protein 1 (Mus musculus, UniProt P38532); assay: decrease of HSF1-responsive luciferase luminescence – cell-based, NIH3T3, dose retest, confirmation (AID 2382); assay type: functional;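 further: NIH3T3 fibroblasts with HSF1-driven luciferase reporter stressed by proteasome inhibitor MG132; luminescence from HSF1-driven luciferase expression after 8 hours of MG132 stress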
T5 sequence (P38532 whole entry): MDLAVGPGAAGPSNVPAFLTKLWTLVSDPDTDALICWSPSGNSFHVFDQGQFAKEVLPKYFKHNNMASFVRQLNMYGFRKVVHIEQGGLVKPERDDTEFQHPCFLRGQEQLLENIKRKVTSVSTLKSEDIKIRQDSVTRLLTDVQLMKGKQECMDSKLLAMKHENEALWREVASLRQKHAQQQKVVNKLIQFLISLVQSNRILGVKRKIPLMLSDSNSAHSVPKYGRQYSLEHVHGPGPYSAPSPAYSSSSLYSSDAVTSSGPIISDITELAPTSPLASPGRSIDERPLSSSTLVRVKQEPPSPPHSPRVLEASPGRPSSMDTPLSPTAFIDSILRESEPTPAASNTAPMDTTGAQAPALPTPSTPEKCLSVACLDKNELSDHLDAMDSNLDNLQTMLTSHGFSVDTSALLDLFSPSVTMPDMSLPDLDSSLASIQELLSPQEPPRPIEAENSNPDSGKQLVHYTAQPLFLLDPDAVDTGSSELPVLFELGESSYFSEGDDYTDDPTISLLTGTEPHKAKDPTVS

[8] = luciferase reporter signal suppression in cells – H4 neuroglioma cells, luminescence, dose response (AID 1990); assay type: functional, cell-based
[9] = Luminescence Cell-Based Dose Response HTS to Identify Inhibitors of 5'UTR Stem-Loop Driven Prion Protein mRNA Translation in H4 Neuroglioblastoma Cells. [Related pubchem assays: 1827 (Project Summary), 1813 (Primary HTS)]; assay type: functional
[10] = Luminescence Cell-Based Dose Retest to Confirm Inhibitors of Cancer Stem Cells. [Related pubchem assays (depositor defined):AID2717, AID2721]; assay type: functional; settings: Homo sapiens
INS1 = assay: INS-1E survival protection against cytokine death – cell-based, luminescence, retest, dose response (AID 449756); assay type: functional; settings: Rattus norvegicus;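 further: cell death triggered by IL-1 beta plus TNF-alpha plus IFN-gamma mixture; protective hits raise ATP signal compared with cytokine alone wells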
[11] = viability of HCT116 lacking mutant beta-catenin – cell-based, human colon tumor, dose response (AID 1045); assay type: functional;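 further: HCT116 colon tumor cells with beta catenin knocked out; cells exposed to compound for 60 hours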
[12] = viability of PTEN-deleted HCT116 cells – cell-based, HCT116 PTEN knockout, dose response (AID 1047); assay type: functional;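 further: HCT116 colon tumor cells with PTEN knocked out; cells exposed to compound for 60 hours before readout; potency for loss of cell viability measured by luminescence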
[13] = NIH-3T3 fibroblast cytotoxicity, dose response, cytotoxicity control, cell-based, fluorescence, Alamar Blue, secondary assay (AID 2327); assay type: functional;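 further: NIH-3T3 mouse fibroblasts cultured with fluconazole at 8 µg/mL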
[14] = fluconazole-exposed Candida albicans growth modulators – fluorescence, retest, confirmation (AID 2467); assay type: functional, cell-based
[15] = P. falciparum Dd2 growth inhibitors, dose response, SYBR Green, cherry-picked samples (AID 1159567); assay type: functional, cell-based

Luciferin 4-monooxygenase, sequence (P08659 whole entry): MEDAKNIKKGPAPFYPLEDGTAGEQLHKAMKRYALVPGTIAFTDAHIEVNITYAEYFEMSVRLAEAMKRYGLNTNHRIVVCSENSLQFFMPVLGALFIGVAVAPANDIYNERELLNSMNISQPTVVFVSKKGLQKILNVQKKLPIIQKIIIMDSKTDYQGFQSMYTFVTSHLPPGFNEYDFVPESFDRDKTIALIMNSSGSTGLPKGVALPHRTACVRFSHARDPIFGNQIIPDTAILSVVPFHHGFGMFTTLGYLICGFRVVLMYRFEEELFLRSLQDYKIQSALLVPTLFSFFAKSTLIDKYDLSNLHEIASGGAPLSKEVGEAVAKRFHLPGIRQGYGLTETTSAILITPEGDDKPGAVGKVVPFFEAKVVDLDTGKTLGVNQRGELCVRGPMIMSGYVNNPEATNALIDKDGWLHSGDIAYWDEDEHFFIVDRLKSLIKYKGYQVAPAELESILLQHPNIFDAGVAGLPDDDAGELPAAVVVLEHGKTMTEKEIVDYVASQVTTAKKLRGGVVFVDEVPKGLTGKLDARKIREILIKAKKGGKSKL

Structure (SMILES): COc1ccc(Cn2c(C3CCCCC3)nc3c(c(=O)c4ccccc4n3C)c2=O)cc1
- EC50 [1]: 6.03 µM (active)
- IC50 [2]: 5.55 µM (active)
- EC50 (Streptococcus): 6.96 µM (active)
- EC50 (Streptokinase A): > 150 µM (not active)

Structure (SMILES): CC1CCN(CC(=O)Nc2cccc(C(=O)Nc3cccc(C(F)(F)F)c3)c2)CC1
- IC50 (Protein skinhead-1): 43.2 µM (active)
- IC50 [3]: 12.3 µM (active)

Structure (SMILES): CC1CCN(CC(O)COc2ccc(OCC(O)CN3CCC(C)CC3)cc2)CC1 (stereo not drawn)
- IC50 [3]: 12.6 µM (active)

Structure (SMILES): COc1cccc(NC(=O)c2cnn(-c3ccccc3)c2C)c1
- EC50 [4]: 8.62 µM (active)
- EC50 [5]: 20.2 µM (active)

Structure (SMILES): CCCc1cc2c(=O)c(-c3cscn3)c(C(=O)OCC)oc2cc1O
- IC50 [3]: 13.8 µM (active)

Structure (SMILES): Cc1cccc(N2CC(C)Cn3c2nc2c3c(=O)n(CC(=O)OCc3ccccc3)c(=O)n2C)c1 (stereo not drawn)
- EC50 [4]: 27.8 µM (active)
- EC50 [5]: > 112 µM (not active)

Structure (SMILES): Cc1ccc(C)c(OCC(=O)Nc2ccc(S(=O)(=O)Nc3ccccn3)cc2)c1C
- IC50 [3]: 7.2 µM (active)

Structure (SMILES): O=C1c2ccccc2C(O)N1CCN1CCOCC1 (stereo not drawn)
- EC50 [4]: > 112 µM (not active)
- EC50 [5]: > 112 µM (not active)

Structure (SMILES): CCCn1nc(NS(=O)(=O)c2ccc(F)cc2)c2cc3ccccc3nc21
- EC50 [4]: > 112 µM (not active)
- EC50 [5]: > 112 µM (not active)

Structure (SMILES): Fc1ccc(-c2nnc(NC3=NCCCCC3)o2)cc1
- EC50 [6]: 1.4 µM (active)
- EC50 [7]: 16 µM (active)
- EC50 [4]: 13.9 µM (active)
- EC50 [8]: 2.66 µM (active)
- EC50 [5]: 2.88 µM (active)
- EC50 [9]: 0.751 µM (active)

Structure (SMILES): CCCCC1CCC(C(=O)N(CC(C)C)c2c(N)n(Cc3ccccc3)c(=O)[nH]c2=O)CC1 (stereo not drawn)
- AC50 [10]: 2.96 µM (active)
- AC50 (INS1): 5.82 µM (active)

Structure (SMILES): Cc1sc(NC(=O)c2cc(-c3ccc(Cl)cc3)nc3ccccc23)c(C(N)=O)c1C
- EC50 [11]: 15.3 µM (active)
- EC50 [12]: 17.3 µM (active)

Structure (SMILES): O=C(NCCC1=CCCCC1)NC1CCCCC1
- IC50 (Protein skinhead-1): > 100 µM (inactive)
- EC50 [4]: > 112 µM (not active)
- EC50 [5]: > 112 µM (not active)

Structure (SMILES): Cc1ccc(C)c(N2CCN(S(=O)(=O)c3ccc4c(c3)OCCO4)CC2)c1
- EC50 [4]: > 112 µM (not active)
- EC50 [5]: > 112 µM (not active)

Structure (SMILES): Cc1cc(C)c(C)c(S(=O)(=O)N[C@@H](C)C(=O)OCc2cc(=O)n3cc(Br)ccc3n2)c1C
- IC50 [2]: 7.42 µM (active)

Structure (SMILES): CC(C)C(=O)Nc1ncc2c(n1)CC(c1cccs1)CC2=O (stereo not drawn)
- EC50 [4]: > 112 µM (not active)
- EC50 [5]: > 112 µM (not active)

Structure (SMILES): COc1cc(C(=O)Nc2ccc(Br)cc2C(=O)c2ccccc2Cl)cc(OC)c1OC
- EC50 [11]: 29 µM (active)
- EC50 [12]: 153 µM (active)

Structure (SMILES): CCOC(=O)c1cccc(Nc2ncnc3ccccc23)c1
- IC50 [3]: 14.5 µM (active)

Structure (SMILES): O=c1c2ccccc2nc(SCc2ccncc2)n1CC1CCCO1 (stereo not drawn)
- IC50 [3]: 12.9 µM (active)

Structure (SMILES): C/C(=N\NC(=O)C(C)n1nc(C)c([N+](=O)[O-])c1C)c1ccccc1O (stereo not drawn)
- AC50 (INS1): 1.93 µM (active)

Structure (SMILES): Cc1nn(-c2ccc(F)cc2)c(Cl)c1/C=N/NC(=O)c1cccc(S(=O)(=O)N2CCCC2)c1
- IC50 [2]: 10.7 µM (active)

Structure (SMILES): COc1ccc(C/C(O)=C(\C#N)c2nc3ccccc3s2)cc1
- EC50 [13]: 39.5 µM (active)
- EC50 [14]: 0.405 µM (active)
- IC50 [3]: 0.724 µM (active)

Structure (SMILES): CCn1/c(=N/C(=O)c2ccc(S(=O)(=O)N3CCOCC3)cc2)sc2cccc(OC)c21
- AC50 (INS1): 5.66 µM (active)

Structure (SMILES): O=C(N/N=C/c1ccc2c(c1)OCO2)c1ccc(COCC(F)(F)C(F)F)cc1
- AC50 [10]: 1.12 µM (active)
- IC50 [2]: 9.06 µM (active)

Structure (SMILES): COc1cccc(-c2ccc3c(c2)[C@@H]2[C@@H](CCN2S(=O)(=O)c2cn(C)cn2)[C@@H](CO)N3)c1
- AC50 [15]: 9.63 µM (active)

Structure (SMILES): C[C@@H]1CN([C@H](C)CO)S(=O)(=O)c2ccc(C3=CCCCC3)cc2O[C@H]1CN(C)C(=O)Cc1ccncc1
- AC50 [15]: 3.22 µM (active)

Structure (SMILES): C[C@@H]1CN([C@@H](C)CO)C(=O)Cc2cc(NC(=O)Nc3ccccc3)ccc2O[C@H]1CN(C)CC1CC1
- AC50 [15]: 8.09 µM (active)

Structure (SMILES): O=C(c1ccccn1)N1CC2(C1)[C@@H](c1ccccc1)[C@H](CO)N2Cc1ccc(Cl)cc1
- AC50 [15]: 4.6 µM (active)

Structure (SMILES): COc1ccc(NC(=O)N2CCC3(CC2)CN(C(=O)C2CCC2)[C@@H](CO)c2c3c3ccc(OC)cc3n2C)cc1
- AC50 [15]: 6.04 µM (active)

Structure (SMILES): CCC(=O)N1CC2(C1)[C@H](c1ccccc1)[C@H](CO)N2Cc1ccccc1OC
- AC50 [15]: 8.35 µM (active)
